# Experiments:
# MET (human) = MET (human) (Homo sapiens, UniProt P08581); experiment: MET (human) AlphaScreen kinase assay, Km of ATP; format: biochemical; settings: AlphaScreen, Km of ATP; read-out: Met biochemical IC50
# In short: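 Human MET at lot-optimised concentration in 50 mM Tris pH 7.4 buffer with 1 mM DTT, compound at 1% DMSO final; enzyme starts the reaction, 60 min at RT.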
# RON (human) = RON (human) (Homo sapiens, UniProt Q04912); experiment: RON (human) AlphaScreen kinase assay, Km of ATP; format: biochemical; settings: AlphaScreen, Km of ATP; read-out: RON biochemical IC50
# In short: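 Reaction was started with enzyme and run 30 min at RT. PT66 donor/acceptor beads in an EDTA-containing Tris pH 7.5 buffer were then added, and the signal was read after 1 h.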
# MET (human), sequence (P08581 25-1390): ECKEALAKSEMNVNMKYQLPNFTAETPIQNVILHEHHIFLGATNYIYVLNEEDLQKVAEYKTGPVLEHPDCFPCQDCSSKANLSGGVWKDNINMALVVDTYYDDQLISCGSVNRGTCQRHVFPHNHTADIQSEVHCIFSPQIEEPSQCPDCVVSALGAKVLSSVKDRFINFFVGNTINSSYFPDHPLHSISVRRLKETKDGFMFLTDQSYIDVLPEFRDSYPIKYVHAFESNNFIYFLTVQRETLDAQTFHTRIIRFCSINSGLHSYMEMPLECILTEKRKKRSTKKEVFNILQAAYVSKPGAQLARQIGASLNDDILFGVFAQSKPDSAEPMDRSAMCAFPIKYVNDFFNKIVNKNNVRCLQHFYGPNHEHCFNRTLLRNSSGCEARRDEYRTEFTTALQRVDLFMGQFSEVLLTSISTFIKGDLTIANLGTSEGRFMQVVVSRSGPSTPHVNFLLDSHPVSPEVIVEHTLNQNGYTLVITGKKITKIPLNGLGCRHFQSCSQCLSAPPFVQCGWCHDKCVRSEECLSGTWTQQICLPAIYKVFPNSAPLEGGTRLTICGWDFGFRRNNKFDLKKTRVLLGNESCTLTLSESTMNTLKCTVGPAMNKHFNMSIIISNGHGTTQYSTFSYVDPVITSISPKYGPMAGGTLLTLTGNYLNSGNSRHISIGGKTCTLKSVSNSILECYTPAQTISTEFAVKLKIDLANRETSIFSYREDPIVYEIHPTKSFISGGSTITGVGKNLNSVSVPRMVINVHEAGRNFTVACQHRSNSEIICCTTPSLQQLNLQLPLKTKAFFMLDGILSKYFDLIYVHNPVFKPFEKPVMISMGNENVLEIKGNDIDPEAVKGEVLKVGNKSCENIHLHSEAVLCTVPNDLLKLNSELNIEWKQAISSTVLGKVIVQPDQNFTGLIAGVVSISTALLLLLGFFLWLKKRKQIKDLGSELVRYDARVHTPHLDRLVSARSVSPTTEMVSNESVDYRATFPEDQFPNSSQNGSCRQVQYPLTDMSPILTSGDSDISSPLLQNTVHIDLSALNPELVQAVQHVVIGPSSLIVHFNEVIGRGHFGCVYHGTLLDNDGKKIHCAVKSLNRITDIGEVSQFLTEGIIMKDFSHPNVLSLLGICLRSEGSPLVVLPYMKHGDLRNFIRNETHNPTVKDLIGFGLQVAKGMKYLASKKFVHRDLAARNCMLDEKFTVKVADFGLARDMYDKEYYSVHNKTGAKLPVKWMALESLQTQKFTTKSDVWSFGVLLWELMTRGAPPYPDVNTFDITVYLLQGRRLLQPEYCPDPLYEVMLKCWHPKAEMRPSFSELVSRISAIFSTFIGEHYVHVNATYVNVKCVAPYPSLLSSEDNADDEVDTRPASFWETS
# RON (human), sequence (Q04912 25-1400): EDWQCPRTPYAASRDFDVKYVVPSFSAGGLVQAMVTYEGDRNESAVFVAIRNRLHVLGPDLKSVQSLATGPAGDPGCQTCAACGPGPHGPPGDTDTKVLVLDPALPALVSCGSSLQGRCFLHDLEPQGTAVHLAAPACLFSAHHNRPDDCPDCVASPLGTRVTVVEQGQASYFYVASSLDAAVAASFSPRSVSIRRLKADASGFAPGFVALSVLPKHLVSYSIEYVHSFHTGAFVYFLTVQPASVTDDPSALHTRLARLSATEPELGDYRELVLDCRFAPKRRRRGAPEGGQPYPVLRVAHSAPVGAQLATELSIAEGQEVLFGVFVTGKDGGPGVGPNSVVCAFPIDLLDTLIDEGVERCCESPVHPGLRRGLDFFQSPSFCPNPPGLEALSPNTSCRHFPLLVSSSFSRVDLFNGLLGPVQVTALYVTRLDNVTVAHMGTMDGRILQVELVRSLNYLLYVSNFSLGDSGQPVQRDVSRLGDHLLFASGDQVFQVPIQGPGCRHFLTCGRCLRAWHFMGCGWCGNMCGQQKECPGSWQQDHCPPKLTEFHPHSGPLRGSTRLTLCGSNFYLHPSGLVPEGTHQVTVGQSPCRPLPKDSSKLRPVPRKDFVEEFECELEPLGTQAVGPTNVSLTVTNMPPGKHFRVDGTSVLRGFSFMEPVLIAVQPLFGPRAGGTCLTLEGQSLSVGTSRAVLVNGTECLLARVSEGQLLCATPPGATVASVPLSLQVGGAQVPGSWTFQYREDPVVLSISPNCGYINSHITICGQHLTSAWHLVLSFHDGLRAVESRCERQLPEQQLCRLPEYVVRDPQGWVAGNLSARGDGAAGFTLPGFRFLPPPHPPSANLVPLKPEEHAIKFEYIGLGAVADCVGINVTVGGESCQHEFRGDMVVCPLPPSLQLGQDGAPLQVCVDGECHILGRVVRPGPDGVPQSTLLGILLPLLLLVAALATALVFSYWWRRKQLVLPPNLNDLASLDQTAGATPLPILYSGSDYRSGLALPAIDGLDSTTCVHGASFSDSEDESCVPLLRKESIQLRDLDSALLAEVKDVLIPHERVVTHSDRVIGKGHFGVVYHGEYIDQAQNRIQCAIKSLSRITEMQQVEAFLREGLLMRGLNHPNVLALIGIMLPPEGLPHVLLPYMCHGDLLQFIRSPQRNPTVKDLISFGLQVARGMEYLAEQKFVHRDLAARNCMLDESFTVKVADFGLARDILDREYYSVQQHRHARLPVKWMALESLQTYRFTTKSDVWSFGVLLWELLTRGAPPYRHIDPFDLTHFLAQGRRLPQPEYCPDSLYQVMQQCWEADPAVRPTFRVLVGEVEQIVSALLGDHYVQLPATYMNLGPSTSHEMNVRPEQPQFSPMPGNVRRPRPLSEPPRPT
Compound,IC50 (MET (human)),IC50 (RON (human))
"C[C@@H](Oc1c(N)ncc2c(C(=O)NC3CCN(C)CC3)coc12)c1c(Cl)ccc(F)c1Cl [Example 186, 6-Amino-7-[(R)-1-(2,6-dichloro-3-fluorophenyl)ethoxy]furo[3,2-c]pyridine-3-carboxylic acid (1-methylpiperidin-4-yl)amide]",< 0.5 µM,0.5 to 5 µM
"Cn1cc(-c2ccc3nnc(COc4c(N)ncc5ccoc45)n3n2)cn1 [Example 472, 7-{[6-(1-methyl-1H-pyrazol-4-yl) [1,2,4]triazolo[4,3-b]pyridazin-3-yl]methoxy}furo[3,2-c]pyridin-6-amine]",0.5 to 5 µM,5 to 20 µM
"C[C@@H](Oc1c(N)ncc2c(-c3ccc(CO)nc3)coc12)c1c(Cl)ccc(F)c1Cl [Example 118, (5-{6-Amino-7-[(R)-1-(2,6-dichloro-3-fluorophenyl)ethoxy]furo[3,2-c]pyridin-3-yl}pyridin-2-yl)methanol]",< 0.5 µM,0.5 to 5 µM
"C[C@@H](Oc1c(N)ncc2c(C3=CCN(C(=O)[C@H](N)c4ccccc4)CC3)coc12)c1c(Cl)ccc(F)c1Cl [Example 262, (2R)-2-Amino-1-[4-{6-amino-7-[(1R)-1-(2,6-dichloro-3-fluoro-phenyl)ethoxy]furo[3,2-c]pyridin-3-yl}-3,6-dihydropyridin-1(2H)-yl]-2-phenylethanone]",< 0.5 µM,< 0.5 µM

# The remaining lines, values ahead:
IC50 (MET (human)),IC50 (RON (human)),Compound
0.5 to 5 µM,0.5 to 5 µM,CC(Oc1c(N)ncc2c(-c3cnn(C4CCNCC4)c3)coc12)c1cccc(-c2ccc[nH]2)c1 (stereo not drawn) [Example 445]
0.5 to 5 µM,5 to 20 µM,"COc1cccc(-c2coc3c(O[C@H](C)c4c(Cl)ccc(F)c4Cl)c(N)ncc23)c1 [Example 60, 7-[(R)-1-(2,6-Dichloro-3-fluorophenyl)ethoxy]-3-(3-methoxy-phenyl)furo[3,2-c]pyridin-6-ylamine]"
